Results from article PMC5980259, “GI‐530159, a novel, selective, mechanosensitive two‐pore‐domain potassium (K2P) channel opener, reduces rat dorsal root ganglion neuron excitability” (British Journal of Pharmacology, 2017).

Tests used:
Assay type in all cases: cell-based
hTREK2 = target: T1, hTREK2 (Homo sapiens, UniProt P57789); experiment: Whole-cell patch clamp, transiently transfected tsA-201 cells, TREK2; conditions: 1 μM, n = 6
T1 construct: expressed in transfected cells; host or cells: tsA-201, transient, pcDNA3.1 vector
T1 sequence (P57789 whole entry): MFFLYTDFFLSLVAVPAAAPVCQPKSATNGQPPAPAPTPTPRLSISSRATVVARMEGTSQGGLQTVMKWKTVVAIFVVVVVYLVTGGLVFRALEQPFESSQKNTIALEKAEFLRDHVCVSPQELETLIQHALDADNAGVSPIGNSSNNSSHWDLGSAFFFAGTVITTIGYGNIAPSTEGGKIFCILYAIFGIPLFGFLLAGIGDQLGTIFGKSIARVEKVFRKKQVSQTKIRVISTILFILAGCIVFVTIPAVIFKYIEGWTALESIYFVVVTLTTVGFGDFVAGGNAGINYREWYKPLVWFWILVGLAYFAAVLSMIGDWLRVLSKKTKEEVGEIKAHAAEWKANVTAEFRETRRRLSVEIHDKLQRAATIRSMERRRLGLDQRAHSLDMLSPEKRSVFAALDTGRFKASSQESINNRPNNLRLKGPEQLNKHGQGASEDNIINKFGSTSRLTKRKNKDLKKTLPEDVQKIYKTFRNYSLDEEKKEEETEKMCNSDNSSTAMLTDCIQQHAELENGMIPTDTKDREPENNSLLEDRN
Procedure: Recordings of hTREK1, hTREK1∆N, hTREK2, hTRAAK and […] currents from transiently transfected tsA‐201 cells were performed using methods as described in Veale and Mathie (2016). Briefly, the pcDNA3.1 vector was cloned with the gene of interest, and these vectors and a similar vector containing GFP were incorporated into the tsA201 cells (0.5 μg per well) using the calcium phosphate method. The cells were incubated for 6–12 h at 37°C in […] and 5% carbon dioxide. Cells were then washed using a PBS solution and used for experiments after 24 h.
Currents were recorded using whole‐cell patch‐clamp using an Axopatch 1D amplifier. Cells were placed in a recording chamber filled with an external medium composed of 145 mM, NaCl, 2.5 mM KCl, 3 mM MgCl2, 1 mM CaCl2 and 10 mM HEPES (pH to 7.4, using NaOH). The internal medium used in the glass pipette comprised 150 mM KCl, 3 mM MgCl2, 5 mM (or 0.1 mM) EGTA and 10 mM HEPES (pH to 7.4, using KOH). GI‐530159 was applied by bath perfusion. Currents were recorded and analysed using pCLAMP 10.2 software Microsoft Excel. The voltage protocol used for recording current through K2P channels was as previously described (Veale and Mathie, 2016). For analysis, we measured the current difference between the −80 and −40 mV steps.

K2P18.1 (TRESK) = target: T2, K2P18.1 (TRESK) (Homo sapiens, UniProt Q7Z418); experiment: Manual patch clamp in recombinant cell lines, TRESK; conditions: 10 μM; n = 4
T2 construct: expressed in transfected cells
T2 sequence (Q7Z418 whole entry, species assumed): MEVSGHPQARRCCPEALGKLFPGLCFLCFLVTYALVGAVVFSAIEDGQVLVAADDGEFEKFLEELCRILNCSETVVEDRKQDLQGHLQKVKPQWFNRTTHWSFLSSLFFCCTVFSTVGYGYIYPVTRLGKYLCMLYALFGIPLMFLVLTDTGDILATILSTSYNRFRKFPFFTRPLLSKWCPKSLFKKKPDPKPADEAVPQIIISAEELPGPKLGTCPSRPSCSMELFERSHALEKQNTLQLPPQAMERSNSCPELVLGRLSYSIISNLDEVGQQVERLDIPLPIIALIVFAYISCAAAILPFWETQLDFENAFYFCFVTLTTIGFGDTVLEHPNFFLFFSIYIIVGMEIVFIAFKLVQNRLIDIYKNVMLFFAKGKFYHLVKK

Kv7.3 = Kv7.3 (Homo sapiens, UniProt O43525); experiment: Rb+ efflux assay, Kv7.3
small rat DRG neurons = experiment: Current-clamp recordings from small rat DRG neurones in short-term culture; conditions: 1 μM
Procedure: Acutely dissociated rat DRG cells were obtained according to a previously described protocol (Passmore, 2005). All animal care and experimental procedures complied with guidelines and were approved by the Pfizer Neusentis Institutional Animal Use and Care Committee. Animal studies are reported in compliance with the ARRIVE guidelines (Kilkenny et al., 2010; McGrath and Lilley, 2015).Cells were plated on coated coverslips (poly‐D‐lysine/laminin, BD Biosciences, San Jose, CA, USA) prior to patching on the same day. Cells were perfused with an extracellular solution containing (in mM): 135 NaCl, 4.7 KCl, 1 CaCl2, 1 MgCl2, 10 HEPES and 10 glucose, pH 7.4, with NaOH (310 mOsmol·L^−1). Pipette solution contained (in mM): 130 KCl, 1 MgCl2, 5 MgATP, 10 HEPES and 5 EGTA, pH adjusted to 7.3 with KOH (290 mOsmol·L^−1). For whole‐cell recordings, currents were filtered at 2 kHz and sampled at 5 kHz. Series resistance was compensated for by up to 80%. For current‐clamp recordings, action potential firing and resting membrane potential (RMP) were recorded from small cells ([…]). GI‐530159 was dissolved in 0.3% DMSO as 10 mM stock and applied in the vicinity of cells using a gravity fed perfusion system (MSC‐200, Bio‐Logic SAS, Claix, France).

hTREK1 = target: T3, hTREK1 (Homo sapiens, UniProt O95069); experiment: 86Rb efflux from CHO–hTREK1 cells; design: expressed in transfected cells; conditions: 60 min exposure, fit of logistic equation
T3 sequence (O95069 1-426): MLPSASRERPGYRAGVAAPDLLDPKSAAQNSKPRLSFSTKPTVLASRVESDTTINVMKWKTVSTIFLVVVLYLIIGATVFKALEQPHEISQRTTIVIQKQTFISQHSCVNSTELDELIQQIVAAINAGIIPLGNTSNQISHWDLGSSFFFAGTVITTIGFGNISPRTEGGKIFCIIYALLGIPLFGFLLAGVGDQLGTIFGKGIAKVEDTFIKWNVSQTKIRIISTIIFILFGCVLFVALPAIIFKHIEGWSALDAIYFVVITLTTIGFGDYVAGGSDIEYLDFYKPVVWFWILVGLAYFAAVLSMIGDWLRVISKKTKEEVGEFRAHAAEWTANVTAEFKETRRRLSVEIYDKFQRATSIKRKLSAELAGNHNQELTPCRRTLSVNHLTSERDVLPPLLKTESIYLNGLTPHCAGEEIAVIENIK
Procedure: CHO–hTREK1 cells were plated on 96‐well, tissue culture‐treated clear plates (92 696) the day before the assay and incubated overnight at 37°C in the presence of 1 μCi·mL^−1 86Rubidium (Rb, NEZ072, Perkin Elmer, Waltham MA, USA). Prior to commencement of the assay, the ^86Rb spiked media were removed from the plate, and cells were washed four times with 100 μL of a 5 mM K^+ ‘Earle's balance salt solution’ (EBSS) buffer containing 135 mM NaCl, 5.4 mM KCl, 1.8 mM CaCl2, 0.8 mM MgCl2,10 mM HEPES and 5 mM glucose, pH 7.4 (adjusted with NaOH). […] Both counting plates were then read on the Wallac Microbeta to measure ^86Rb content [counts per min (CPM)]. % ^86Rb efflux values were calculated as follows: ^86Rbefflux%cell content=CPMin efflux buffer/CPMin efflux buffer+CPMin cell lysate*100.
Magnitude of ^86Rb efflux stimulation was calculated as follows: %Activation=%efflux test well−efflux in5.4mMK^+EBSS/Efflux in70mMK^+EBSS−efflux in5.4mMK^+EBSS*100.
Half maximal activation of ^86Rb efflux (EC50) value was calculated using IDBS Xlfit using a four‐parameter logistic equation and expressed as mean ± SEM.

[1] = 15 pA depolarizing current injection, of the 14 cells tested

Structure (SMILES): Nc1ccc(Oc2ccc(C(c3ccc(Oc4ccc(N)cc4)cc3)(C(F)(F)F)C(F)(F)F)cc2)cc1 [GI‐530159, 4,4′‐(hexafluoroisopropylidene)bis(p‐phenyleneoxy)dianiline]
- enhancement of TREK2 current (hTREK2): 42 ± 6%
- effect on K2P18.1 (TRESK) current (K2P18.1 (TRESK)): −2.0 ± 3.5%
- activator effect on Kv7.3 (Kv7.3): no activator effects
- share of cells with firing frequency reduced or abolished (small rat DRG neurons; 14 cells tested): 57%
- share of neurons with firing unaltered / unaffected (small rat DRG neurons; 14 cells tested): 43%
- cells with a reduction in firing frequency (small rat DRG neurons; [1]): two
- cells with complete abolition in firing frequency (small rat DRG neurons; [1]): six
- neurons with firing unaltered (small rat DRG neurons; [1]): six
- resting membrane potential after application, averaged per rat (small rat DRG neurons; n = 7 rats, from −54.0 ± 2.0 mV, P < 0.05): −57.8 ± 1.4 mV
- resting membrane potential after application (small rat DRG neurons; n = 14 individual neurons, from −53.6 ± 1.5 mV, P < 0.05): −57.1 ± 1.5 mV
- EC50 (hTREK1; read-out: EC50 for stimulation of 86Rb efflux): 760 ± 100 nM
- Emax (hTREK1; normalized to 70 mM K, read-out: maximum effect on 86Rb efflux, % of that seen with 70 mM K): 142 ± 2%
